Key:
Assay type in all cases: organism-based
[1] = Toxicity in Artemia salina larvae at 30 ppm; conditions: in vivo, read-out: Activity
Oryzias latipes [2] = test: Ichthyotoxicity in Oryzias latipes; conditions: in vivo
Oryzias latipes [3] = test: Toxicity in Oryzias latipes; conditions: in vivo

SMILES	mortality at 30 ppm [1] [%]	LC100 (Oryzias latipes [2]) [ppm]	LC50 (Oryzias latipes [3]) [ppm]
CC(=O)OCC1=C2CC/C(C)=C/CC[C@@]3(C)O[C@@H]3CC/C(C)=C/[C@H]2OC1 [LOBOPHYNIN B]	25	–	–
CC(=O)OCC1=C\CC/C(C)=C/CC[C@@]2(C)CC[C@@](C(C)C)(\C=C\1)O2 [LOBOPHYNIN A]	20	–	–
COC(=O)/C1=C/CC/C(C)=C/[C@@H]2OCC(C)=C2CC[C@@]2(C)O[C@@H]2CC1 [LOBOPHYNIN C]	–	30	22.5

From ChEMBL document CHEMBL1146410, “Bioactive Terpenoids from Octocorallia. 4. Three New Cembrane-Type Diterpenoids from the Soft Coral Lobophytum schoedei” (J Nat Prod, 1997)
